Literature values in patent publication US20250065012A1, “DIRECTIONAL AND TEMPORAL RELEASE OF DRUGS FROM MEDICAL DEVICES” (NANO THERAPEUTICS PRIVATE LIMITED, priority 2022, published 2025).
Structures can show the parent of a compound that is named as a salt.

Legend:
[1] = injected intravenously
platelet aggregation = details: after systemic administration

SMILES | increase in bleeding time [1] | increase in clotting time [1] | platelet aggregation inhibition (platelet aggregation)
CCCCS(=O)(=O)N[C@@H](Cc1ccc(OCCCCC2CCNCC2)cc1)C(=O)O [Tirofiban HCl] | 3-4 fold | 3-4 fold | 
CCCCS(=O)(=O)N[C@@H](Cc1ccc(OCCCCC2CCNCC2)cc1)C(=O)O [Tirofiban] |  |  | up to 96%
